According to patent US20100298447A1, “COMPOSITE PRODUCT OF LOW-SOLUBILITY DRUG AND SURFACTANT, AND PROCESS FOR PRODUCTION THEREOF” (priority 2007, published 2010):

Test: Solubility of aciclovir in water at room temperature
Assay type: physicochemical
Conditions: room temperature (25° C.)
Protocol: Thus, an S/O solution could not be obtained. Thus, an aciclovir dispersion was prepared in the form of an S/O solution.

- solubility in water: very poor
Compound: Nc1nc2c(ncn2COCCO)c(=O)[nH]1 [aciclovir]
